Data from ChEMBL document CHEMBL1134501, “Structure-activity studies for a novel series of bicyclic substituted hexahydrobenz[e]isoindole alpha1A adrenoceptor antagonists as potential agents for the symptomatic treatment of benign prostatic hyperplasia” (J Med Chem, 2001).

Experiments:
[1] = target: T1, Alpha-1D adrenergic receptor (Rattus norvegicus, UniProt P23944); assay: Binding affinity to rat alpha-1D adrenergic receptor expressed in LTK cells; type: cell-based
T1 sequence (P23944 whole entry): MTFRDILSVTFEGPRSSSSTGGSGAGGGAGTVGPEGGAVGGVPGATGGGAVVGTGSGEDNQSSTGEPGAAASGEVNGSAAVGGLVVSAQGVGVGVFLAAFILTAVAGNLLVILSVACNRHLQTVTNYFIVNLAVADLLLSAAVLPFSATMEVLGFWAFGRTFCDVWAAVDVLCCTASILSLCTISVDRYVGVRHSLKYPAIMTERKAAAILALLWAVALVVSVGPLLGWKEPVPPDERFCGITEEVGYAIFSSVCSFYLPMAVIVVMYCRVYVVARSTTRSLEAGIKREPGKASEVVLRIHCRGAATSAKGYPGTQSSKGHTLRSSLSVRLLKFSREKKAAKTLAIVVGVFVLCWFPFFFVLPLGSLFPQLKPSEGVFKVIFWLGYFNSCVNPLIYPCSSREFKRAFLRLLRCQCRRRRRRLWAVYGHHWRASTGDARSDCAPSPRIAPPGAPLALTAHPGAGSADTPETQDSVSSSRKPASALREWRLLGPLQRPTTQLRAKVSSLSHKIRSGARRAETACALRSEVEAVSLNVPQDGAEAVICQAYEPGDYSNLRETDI

[2] = target: T2, Alpha-1A adrenergic receptor (Rattus norvegicus, UniProt P43140); assay: Binding affinity to alpha-1A adrenergic receptor in rat submaxillary gland; type: tissue-based
T2 sequence (P43140 whole entry): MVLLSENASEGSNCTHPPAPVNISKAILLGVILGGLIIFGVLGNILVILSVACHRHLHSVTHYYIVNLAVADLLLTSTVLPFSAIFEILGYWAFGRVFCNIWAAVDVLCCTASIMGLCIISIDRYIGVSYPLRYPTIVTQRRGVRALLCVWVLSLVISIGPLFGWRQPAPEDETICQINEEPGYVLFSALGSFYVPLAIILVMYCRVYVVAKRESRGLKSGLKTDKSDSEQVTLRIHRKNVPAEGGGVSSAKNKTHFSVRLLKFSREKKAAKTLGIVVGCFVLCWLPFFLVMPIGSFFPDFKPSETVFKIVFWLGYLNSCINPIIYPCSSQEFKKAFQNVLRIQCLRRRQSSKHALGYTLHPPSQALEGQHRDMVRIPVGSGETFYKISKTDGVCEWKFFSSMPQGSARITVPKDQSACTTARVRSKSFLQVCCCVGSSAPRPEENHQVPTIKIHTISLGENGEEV

[3] = organism: Cricetulus griseus; assay: Selectivity ratio (alpha-1B/alpha-1A) of the compound
[4] = target: T3, Alpha-1B adrenergic receptor (Rattus norvegicus, UniProt P15823); assay: In vitro antagonistic activity against alpha-1B receptor in rat spleen.; type: functional, tissue-based; conditions: read-out: pA2 (converted)
T3 sequence (P15823 whole entry): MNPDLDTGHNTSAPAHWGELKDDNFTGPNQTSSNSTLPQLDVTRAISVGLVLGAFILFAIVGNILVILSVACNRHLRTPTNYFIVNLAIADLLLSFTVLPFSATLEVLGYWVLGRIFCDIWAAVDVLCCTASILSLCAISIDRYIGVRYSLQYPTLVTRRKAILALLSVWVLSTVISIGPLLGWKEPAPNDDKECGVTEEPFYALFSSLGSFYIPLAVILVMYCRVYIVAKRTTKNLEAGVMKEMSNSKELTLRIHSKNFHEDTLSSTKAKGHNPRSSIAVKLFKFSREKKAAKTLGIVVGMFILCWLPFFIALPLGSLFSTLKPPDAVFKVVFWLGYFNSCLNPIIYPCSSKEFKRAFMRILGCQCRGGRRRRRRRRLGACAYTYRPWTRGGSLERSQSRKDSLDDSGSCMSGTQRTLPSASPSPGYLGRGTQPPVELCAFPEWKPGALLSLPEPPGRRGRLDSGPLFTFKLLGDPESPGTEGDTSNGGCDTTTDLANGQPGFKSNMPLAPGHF

[5] = target: T2, Alpha-1A adrenergic receptor; assay: In vitro antagonistic activity towards alpha-1A adrenergic receptor in rat vas deferens; type: functional, tissue-based; conditions: read-out: pA2 (converted)
[6] = Selectivity ratio (antolog[pA2rat vas deferens/pA2 rat spleen]) of the compound; type: functional
[7] = target: Alpha-1A adrenergic receptor (Canis familiaris); assay: In vitro antagonistic activity against alpha-1A receptor in dog prostate.; conditions: read-out: pA2 (converted)
[8] = system: Canis familiaris; assay: In vivo antagonist dissociation constant in intaraurethral pressure model in dogs.; conditions: Canis lupus familiaris, read-out: pA2 (converted)
[9] = organism: Rattus norvegicus; assay: Antagonistic activity in spontaneously hypertensive rat model.; type: functional

Ki [1] | Ki [2] | Ratio [3] | SMILES | further results
3.71 nM | 0.25 nM | 13.2 | COc1cc2c(=O)n(CCN3C[C@@H]4CCc5c(OC)cccc5[C@@H]4C3)c(=O)n(C)c2cc1OC | 
83.4 nM | 80.7 nM | 1.43 | COc1cc2c(cc1OC)CN(CCN1C[C@@H]3CCc4c(OC)cccc4[C@@H]3C1)CC2 | 
72 nM | 12.9 nM | 7.4 | COc1cc2c(cc1OC)C(=O)N(CCN1C[C@@H]3CCc4c(OC)cccc4[C@@H]3C1)CN2 | 
0.41 nM | 0.43 nM | 1.95 | COc1cccc2c1CC[C@H]1CN(CCn3c(=O)[nH]c4cc(NC(C)=O)ccc4c3=O)C[C@@H]21 | 
0.92 nM | 1.39 nM | 1.17 | COc1cccc2c1CCC1CN(CCn3c(=O)[nH]c4ccsc4c3=O)CC21 (configuration not stated) | 
0.77 nM | 0.09 nM | 17.3 | COc1cccc2c1CC[C@H]1CN(CCn3c(=O)[nH]c4cc(C#N)ccc4c3=O)C[C@@H]21 | Kb [4]: 18.6 nM; Kb [5]: 1.48 nM; Ratio [6]: 12.59; Kb [7]: 0.148 nM
168 nM | 123 nM | 1.5 | COc1cc2c(cc1OC)NC(=O)N(CCN1C[C@@H]3CCc4c(OC)cccc4[C@@H]3C1)C2 | 
1.15 nM | 0.85 nM | 2.67 | COc1cccc2c1CC[C@H]1CN(CCn3c(=O)[nH]c4c(OC)cccc4c3=O)C[C@@H]21 | 
58.4 nM | 7.82 nM | 7.83 | COc1cc2c(cc1OC)C(=O)N(CCN1C[C@@H]3CCc4c(OC)cccc4[C@@H]3C1)CC2 | 
1.13 nM | 1.02 nM | 3.68 | COc1ccc2[nH]c(=O)n(CCN3C[C@@H]4CCc5c(OC)cccc5[C@@H]4C3)c(=O)c2c1 | 
0.52 nM | 0.48 nM | 2.1 | COc1cccc2c1CC[C@H]1CN(CCn3c(=O)[nH]c4cscc4c3=O)C[C@@H]21 | 
189 nM | 62.2 nM | 1.01 | COc1cc2c(cc1OC)NCN(CCN1C[C@@H]3CCc4c(OC)cccc4[C@@H]3C1)C2 | 
1.99 nM |  |  | COc1cccc2c1CC[C@H]1CN(CCn3c(=O)[nH]c4ncccc4c3=O)C[C@@H]21 | 
0.24 nM | 0.04 nM | 18 | COc1cc2[nH]c(=O)n(CCN3C[C@@H]4CCc5c(OC)cccc5[C@@H]4C3)c(=O)c2s1 | 
 |  |  | CCOc1ccccc1OCCN[C@H](C)Cc1ccc(OC)c(S(N)(=O)=O)c1 [TAMSULOSIN] | Kb [8]: 1.35 nM
1.13 nM | 1.15 nM | 0.9 | COc1cccc2c1CC[C@H]1CN(CCn3c(=O)[nH]c4cccc(C)c4c3=O)C[C@@H]21 | 
1.01 nM | 1.03 nM | 2.04 | COc1cccc2c1CC[C@H]1CN(CCn3c(=O)[nH]c4sccc4c3=O)C[C@@H]21 | 
0.77 nM | 0.27 nM | 6.07 | COC(=O)c1ccc2c(=O)n(CCN3C[C@@H]4CCc5c(OC)cccc5[C@@H]4C3)c(=O)[nH]c2c1 | 
1.67 nM | 1.2 nM | 2.15 | COc1cccc2c1CC[C@H]1CN(CCn3c(=O)[nH]c4[nH]ccc4c3=O)C[C@@H]21 | 
7.79 nM |  |  | COc1cc2ncn(CCN3C[C@@H]4CCc5c(OC)cccc5[C@@H]4C3)c(=O)c2cc1OC | Kb [4]: 85.1 nM; Kb [8]: 5.01 nM; pED50 [9]: 5.32
1.4 nM |  |  | COc1cc2[nH]c(=O)n(CCN3C[C@@H]4CCc5c(OC)cccc5[C@@H]4C3)c(=O)c2cc1OC | 
4.4 nM | 7.73 nM | 1.5 | COc1cccc2c1CC[C@H]1CN(CCn3c(=O)[nH]c4cc(-c5ccccc5)sc4c3=O)C[C@@H]21 | 

Ki [1] | Ki [2] | Ratio [3] | SMILES | further results
2.71 nM | 1.89 nM | 4.9 | COc1cc2[nH]c(=O)n(CCN3C[C@@H]4CCc5c(OC)cccc5[C@@H]4C3)c(=O)c2cc1Cl | 
 |  |  | COc1cc2nc(N(C)CCCNC(=O)C3CCCO3)nc(N)c2cc1OC (configuration not stated) [ALFUZOSIN] | Kb [4]: 4.9 nM; Kb [8]: 135 nM
1.38 nM | 1.48 nM | 2.3 | COC(=O)c1cc2[nH]c(=O)n(CCN3C[C@@H]4CCc5c(OC)cccc5[C@@H]4C3)c(=O)c2s1 | 
0.89 nM | 0.09 nM | 14.6 | COc1cccc2c1CC[C@H]1CN(CCn3c(=O)[nH]c4c(C)c(C)ccc4c3=O)C[C@@H]21 | 
0.62 nM | 0.67 nM | 1.73 | COc1cccc2c1CC[C@H]1CN(CCn3c(=O)[nH]c4ccccc4c3=O)C[C@@H]21 | 
0.73 nM | 1.38 nM | 2.94 | COc1cccc2c1CC[C@H]1CN(CCn3c(=O)[nH]c4cc(C)c(C)cc4c3=O)C[C@@H]21 | 
2.86 nM | 2.73 nM | 5.96 | COc1cccc2c1CC[C@H]1CN(CCn3c(=O)[nH]c4c(C)cc(C)cc4c3=O)C[C@@H]21 | 
1.78 nM | 1.41 nM | 2.19 | COc1cccc2c1CC[C@H]1CN(CCn3c(=O)[nH]c4cnccc4c3=O)C[C@@H]21 | 
0.92 nM | 1.39 nM |  | COc1cccc2c1CC[C@H]1CN(CCn3c(=O)[nH]c4ccsc4c3=O)C[C@@H]21 | 
1.2 nM | 0.91 nM | 3.65 | COc1cccc2c1CC[C@H]1CN(CCn3c(=O)[nH]c4cc([N+](=O)[O-])ccc4c3=O)C[C@@H]21 | 
2.5 nM | 3.58 nM | 2.29 | COc1cccc2c1CC[C@H]1CN(CCn3c(=O)[nH]c4cccnc4c3=O)C[C@@H]21 | 
1.45 nM | 1.09 nM | 6.5 | COc1cccc2c1CC[C@H]1CN(CCn3c(=O)[nH]c4c(C)c(OC)sc4c3=O)C[C@@H]21 | 
32.7 nM | 3.75 nM | 7.8 | COc1cc(N)c(C(=O)NCCN2C[C@@H]3CCc4c(OC)cccc4[C@@H]3C2)cc1OC | 
0.68 nM | 0.04 nM | 16.5 | COc1cccc2c1CC[C@H]1CN(CCn3c(=O)[nH]c4c(OC)c(OC)ccc4c3=O)C[C@@H]21 | Ratio [6]: 5.62
2.87 nM | 6.8 nM | 1.55 | COc1cccc2c1CC[C@H]1CN(CCn3c(=O)[nH]c4ccncc4c3=O)C[C@@H]21 | 
 |  |  | COc1cc2nc(N3CCN(C(=O)C4CCCO4)CC3)nc(N)c2cc1OC (configuration not stated) [TERAZOSIN] | Kb [8]: 95.5 nM
5.49 nM | 9.22 nM | 1.36 | COc1cccc2c1CC[C@H]1CN(CCn3c(=O)[nH]c4nccnc4c3=O)C[C@@H]21 | 
0.21 nM | 0.09 nM | 7.3 | COc1ccc2c(=O)n(CCN3C[C@@H]4CCc5c(OC)cccc5[C@@H]4C3)c(=O)[nH]c2c1 | 
1.5 nM | 0.41 nM | 5.6 | COc1cccc2c1CC[C@H]1CN(CCn3c(=O)[nH]c4c(C(C)C)c(OC)sc4c3=O)C[C@@H]21 | 
0.71 nM | 0.85 nM |  | COc1cccc2c1CC[C@H]1CN(CCn3c(=O)[nH]c4c(C)csc4c3=O)C[C@@H]21 | 
0.66 nM | 0.33 nM | 1 | COc1cccc2c1CC[C@H]1CN(CCn3c(=O)[nH]c4c(-c5ccccc5)csc4c3=O)C[C@@H]21 | 
0.69 nM | 0.71 nM | 1.31 | COc1cccc2c1CC[C@H]1CN(CCn3c(=O)[nH]c4cccc(Cl)c4c3=O)C[C@@H]21 | 
